This passage reports Apparent density, Porosity and Average diameter results from US11707434B2, “Method for preparing organic solvent-free lyophilized cyclophosphamide” (KOREA UNITED PHARM. INC., priority 2018, dated 2023).

A short description of this data set: Measurement of porosity (KOPTRI). The format is physicochemical. How it is done:
The porosity measurement was performed by the Korea Polymer Testing & Research Institute (KOPTRI), an accredited international testing agency, by requesting the samples prepared by the present applicant.

SMILES strings stand for the structures.

Turning to `O=P1(N(CCCl)CCCl)NCCCO1` (stereo not drawn) [Comparison 2, 2-[bis(2-chloroethyl)amino]tetrahydro-2H-1,3,2-oxazaphosphorin-2-oxide], the Apparent density was found to be 1.31 g/mL and the Porosity was 5.24%. Besides, for the setting “pore size”, the Average diameter is 0.02 μm.
